Laboratory results taken from paper PMC12152178 (Communications Medicine, 2025).
Read-outs that look alike come from different tables or passages of the source.

Experiments:
[1] = system: D. russelii venom proteases (SVMP); assay: Proteolytic activity of venom and its inhibition; assay type: biochemical, Daboia russelii; settings: for IC50: read-out: IC50 (inhibition of venom proteolytic activity)
[2] = system: human platelet-poor plasma, intrinsic pathway (aPTT); assay: Coagulation assay: activated partial thromboplastin time; assay type: biochemical
[3] = system: D. russelii venom-induced lethality; assay: Preclinical efficacy: preincubation model of envenoming; assay type: in vivo, mice; settings: for Percentage of survival: i.v., 24 h, n=5
[4] = system: human platelet-poor plasma, extrinsic pathway (PT); assay: Coagulation assay: prothrombin time; assay type: biochemical
[5] = system: human fibrinogen; assay: Fibrinogenolytic activity of venom and its inhibition; assay type: biochemical
[6] = system: D. russelii venom-induced lethality; assay: Preclinical efficacy: rescue experiments; assay type: in vivo, mice; settings: 24 h, n=5
[7] = system: murine C2C12 skeletal muscle myoblast cells; assay type: cell-based; settings: for cytotoxicity of the inhibitor alone: 100 μM, C2C12 cells, no venom; for reduction of venom-induced cytotoxicity: GA, KL and MP venoms, SMI 0–100 μM
[8] = KA and RJ venoms, SMI up to 100 µM (each)
[9] = TN, KL, GA and MH venoms, SMI 0–100 µM, concentration-dependent
[10] = KA venom 2.5x LD50 preincubated with SMI 60 µg/mouse
[11] = PB venom 2.5x LD50 preincubated with SMI 60 µg/mouse
[12] = PB venom 2.5x LD50 preincubated with SMI 120 µg/mouse
[13] = RJ venom 2.5x LD50 preincubated with SMI 60 µg/mouse
[14] = RJ venom, SMI 120 µg/mouse, venom alone mean 3 min
[15] = TN venom 2.5x LD50 preincubated with SMI 60 µg/mouse
[16] = WB venom 2.5x LD50 preincubated with SMI 60 µg/mouse
[17] = MP venom 2.5x LD50 i.p., SMI 120 µg/mouse (each) i.v. at 0 min
[18] = TN, WB and RJ venoms, SMI 0–100 μM (each)

CNC(=O)[C@@H](NC(=O)[C@H](CC(C)C)[C@H](O)C(=O)NO)C(C)(C)C [marimastat, Marimastat]
IC50 ([1]; GA (Goa) venom): 2.33 µM
IC50 ([1]; MP venom): 1.51 µM
IC50 ([1]; RJ (Rajasthan) venom): 1.67 µM
inhibition of venom-induced aPTT alterations ([2]; AP and MP venoms, SMI 0–100 µM): capable of inhibiting
inhibition of venom-induced aPTT alterations [2, 8]: ineffective
inhibition of venom-induced aPTT alterations ([2]; PB and WB venoms, SMI up to 100 µM (each)): failed to inhibit
reversal of venom-induced aPTT alterations [2, 9]: reversed
Percentage of survival [3, 10]: sufficient to neutralise the lethal effects
Percentage of survival [3, 11]: failed to protect
Percentage of survival [3, 12]: complete protection
Percentage of survival [3, 13]: failed to protect
extension of survival time over venom alone ([3]; RJ venom, SMI 120 µg/mouse): 12 x
mean survival time of mice (onset of lethality) [3, 14]: 36 min
Percentage of survival [3, 15]: failed to protect
Percentage of survival ([3]; TN venom 2.5x LD50 preincubated with SMI 120 µg/mouse): complete protection
Percentage of survival [3, 16]: failed to protect
inhibition of venom-induced PT alterations [4, 8]: ineffective
inhibition of venom-induced PT alterations ([4]; MP and AP venoms, SMI up to 100 µM (each)): failed to inhibit
inhibition of venom-induced PT alterations ([4]; PB and WB venoms, SMI 0–100 µM): capable of inhibiting
reversal of venom-induced PT alterations [4, 9]: reversed
protection against venom-induced fibrinogenolysis ([5]; PB, KA, KL, AP, GA and RJ venoms, SMI 100 µM): very effective
protection against venom-induced fibrinogenolysis ([5]; TN, MH, MP and WB venoms, SMI 100 µM (each)): did not completely neutralise
% of survival ([6]; KA venom 2.5x LD50 i.p., SMI 120 µg/mouse i.v. at 0 min): 40%
% of survival [6, 17]: 40%
% of survival ([6]; PB venom 2.5x LD50 i.p., SMI 120 µg/mouse i.v. at 0 min): ineffective
cytotoxicity of the inhibitor alone [7]: Neither inhibitor exhibited cytotoxicity
inhibition of venom-induced cytotoxicity ([7]; AP venom 50 µg/ml, SMI 0–100 µM): 94.89%
reduction of venom-induced cytotoxicity [7]: 72.88–94.85%
inhibition of venom-induced cytotoxicity [7, 18]: 41.20–70.51%

N=C(N)c1ccc2cc(OC(=O)c3ccc(N=C(N)N)cc3)ccc2c1 [nafamostat, Nafamostat]
inhibition of the protease activity of D. russelii venom ([1]; AP venom (Fig. S1), 0–100 µM): failed to inhibit
extension of survival time over venom alone ([3]; RJ venom, SMI 120 µg/mouse): 160 x
mean survival time of mice (onset of lethality) [3, 14]: 480 min

CCc1c(C(=O)C(N)=O)c2c(OCC(=O)O)cccc2n1Cc1ccccc1 [varespladib, Varespladib]
inhibition of venom-induced aPTT alterations ([2]; TN venom, 100 µM): failed to prevent coagulopathy
Percentage of survival ([3]; AP venom 2.5x LD50 preincubated 30 min with SMI 60 µg/mouse): failed to protect
Percentage of survival ([3]; AP venom 2.5x LD50 preincubated with SMI 120 µg/mouse): failing to prevent lethality
extension of survival time over venom alone ([3]; KA and AP venoms (both), SMI 120 µg/mouse): 13 x
mean survival time of mice ([3]; KA and AP venoms (both), SMI 120 µg/mouse, venom alone mean 3 min): 39 min
Percentage of survival [3, 10]: failed to protect
Percentage of survival ([3]; KA venom 2.5x LD50 preincubated with SMI 120 µg/mouse): failing to prevent lethality
Percentage of survival [3, 11]: failed to protect
Percentage of survival ([3]; PB venom 2.5x LD50 preincubated with SMI 90 µg/mouse): 80%
Percentage of survival [3, 12]: complete protection
Percentage of survival [3, 13]: 40%
Percentage of survival ([3]; RJ venom 2.5x LD50 preincubated with SMI 90 µg/mouse): 60%
Percentage of survival [3, 15]: failed to protect
Percentage of survival ([3]; TN venom 2.5x LD50 preincubated with SMI 90 µg/mouse): completely protected
Percentage of survival [3, 16]: 40%
inhibition of venom-induced PT alterations ([4]; TN venom, 100 µM): failed to prevent coagulopathy
% of survival [6, 17]: 60%
% of survival ([6]; PB venom 2.5x LD50 i.p., SMI 120 µg/mouse i.v. at 30 min): complete protection
cytotoxicity of the inhibitor alone [7]: Neither inhibitor exhibited cytotoxicity
reduction of venom-induced cytotoxicity [7]: 72.88–94.85%
inhibition of venom-induced cytotoxicity ([7]; MH venom 50 µg/ml, SMI 0–100 µM): 88.67%
inhibition of venom-induced cytotoxicity ([7]; PB venom 50 µg/ml, SMI 0–100 µM): 85.32%
inhibition of venom-induced cytotoxicity [7, 18]: 41.20–70.51%
